Reference: paper PMC11145891, “Effect of 2-hydroxyethylammonium carboxylate protic ionic liquids on the solubility and cytotoxicity of indomethacin” (BMC Chemistry, 2024)
Read-outs that look alike come from different tables or passages of the source.

Assays:
HT29 cell line [1] = test: MTT assay cytotoxicity of PILs; conditions: for IC50: MTT, 24 h exposure
Method: (§1) Pastor Institute of Iran generously provided the human colon adenocarcinoma cell line HT29. The cell lines were cultured in RPMI’s medium supplemented with 10% fetal bovine serum (FBS) and Culture medium containing FBS. The cell cultures were incubated at 37 °C in a humidified environment of 5% carbon dioxide—CO2.
(§2) The colorimetric MTT assay was used to assess the cytotoxic activity of PILs (Twentyman and Luscombe 1987). HT29 cells were seeded in 96-well plates and allowed to conform for the first step. The cells were then incubated for 24 h at 37 °C in 5% CO2 in a total of six concentrations (3–150 µg mL^−1) of the studied compounds diluted in RPMI medium (previously sterilized with a 0.22 m syringe filter). After 24 h of exposure, each well was filled with 50 µL of MTT solution (3 (4,5-dimethylthiazol-2-yl)-2,5-diphenyltetrazolium bromide (MTT) from Sigma-Aldrich) (2 mg. mL in PBS, pH 7.2). To dissolve the formazan crystals, the medium was substituted with 150 µL of dimethyl sulfoxide (DMSO) after 4 h of incubation.
(§3) The plate was shaking for around 1 h while being held out of direct sunlight. Cell viability was measured through the optical density of reduced MTT at 570–630 nm using a microplate reader (Synergy HT from BioTeK Instruments Inc., Winooski, VT, USA). The percentage of viable cells was calculated as the ratio between the absorbance of treated and control cells. Similarly, IC50 was estimated using a non-linear regression, logistic equation to determine the chemical concentration that causes a 50% reduction in cell viability [27].

[2] = Apparent thermodynamic functions of IMC dissolution (van't Hoff and Gibbs equations); type: physicochemical
Description: The van’t Hoff and Gibbs equations were employed for calculating the Thm = 305.55 K (the mean harmonic temperature), which was derived by considering into calculate temperatures (298.15 to 313.15 K). The thermodynamic parameters of dissolution have been evaluated by employing the apparent thermodynamic functions. […] On the other hand, the van’t Hoff plot, which is a plot of lnx1 versus 1/T-1/Thm , can be utilized to figure out:14 ΔHsoln∘=-R∂lnx1/∂1/T-1/ThmP, 15 ΔGsoln∘=-RThm×intercept.
In this manner, the values of ΔHsoln∘ and ΔGsoln∘ have been evaluated utilizing the slope and intercept of Eqs. 14 and 15. Furthermore, the following equation [47, 48] was applied to evaluate the standard molar entropy of dissolution, ΔSsoln∘ [49]:16 ΔSsoln∘=ΔHsoln∘-ΔGsoln∘/Thm.
Finally, in the IMC dissolution process, Eqs.

[3] = cited from earlier work
[4] = XRD of residual solids from solubility measurement; type: physicochemical; conditions: residual solids from saturated aqueous PIL solutions vs raw IMC
Description: The XRD diffractograms of raw IMC crystals together with residuals crystals sampled from solubility measurement are depicted in Figure S4. (supporting information). It should be noted that quantitative analysis of phases in samples with preferential orientation or texture is not possible using traditional methods such as direct comparison. […] First, the stability of IMC in the presence of PILs was investigated. The analysis of the bottom phase(s) after the solubility experiments have been presented. There are different type of factors affecting the peak intensity of XRD. These type of factors are listed as: • The nature of the sample under test (single-phase or multiphase of the sample). • Powder samples have less peak intensity than bulk samples. (Due to the effect of absorption factor). • Grain size: the larger the grain size, the higher the peak intensity. For example, considering samples with the same chemical composition, which have been annealed at different times of heat treatment, a sample will have a higher peak intensity with a longer heat treatment time (longer annealing time = larger grain size). It should be noted that the smaller the grain size, the higher the […] is the amorphous part of the material, and as a result the background scatter in the diffraction pattern will increase and the peak intensity would decrease.

[5] = type: physicochemical
Method: Before obtaining dissolution data, a calibration curve for Indomethacin (IMC) was established (Fig. 2). A double-beam T80 UV-vis spectrometer (Japan) and a mixture of ethanol and distilled deionized water were employed to dissolve a specific amount of IMC to generate the calibration curve. Numerous methods were utilized to determine the experimental solubility data, encompassing the shake-flask method. […] Then, the excess amounts of IMC were added to glass vials holding a particular quantity of water and PILs, which were stirred and kept for 3 days in a water bath thermostat until equilibrium was reached. The temperature was adjusted with a precision of 0.01 K using an ED water bath thermostat (Julabo Co., Germany). After 3 days, the liquid and solid phases were separated employing a Hettich D-7200 centrifuge. At the next step, the liquid phase was appropriately diluted with an ethanol + water solution after filtering the saturated solutions through a 0.22 μm PTFE filter. The concentration of IMC in the solutions was measured by utilizing the calibration curve and a T80 UV-vis spectrometer (Japan). The mole fraction of IMC (x1) in the aqueous solutions containing PILs was determined, for the IMC + water, IMC + water combination, and IMC + PILs systems using the Eq. 1 [25, 26]:1 x1=[…]3, where Wi and Mi, respectively, indicate the weight fractions and molar mass weight fractions of each system component (i).

HT29 cell line [6] = system: HT29 cell line
Method: as §1, §2, §3

[7] = aq. MEAA, w3 = 0.0000, Thm = 305.55 K
[8] = aq. MEAA, w3 = 0.0200, Thm = 305.55 K
[9] = aq. MEAA, w3 = 0.0500, Thm = 305.55 K
[10] = aq. MEAA, w3 = 0.0700, Thm = 305.55 K
[11] = aq. MEAA, w3 = 0.1000, Thm = 305.55 K
[12] = aq. MEAA, w3 = 0.1500, Thm = 305.55 K
[13] = aq. MEAA, w3 = 0.2000, Thm = 305.55 K
[14] = aq. MEAL, w3 = 0.0000, Thm = 305.55 K
[15] = aq. MEAL, w3 = 0.0200, Thm = 305.55 K
[16] = aq. MEAL, w3 = 0.0500, Thm = 305.55 K
[17] = aq. MEAL, w3 = 0.0700, Thm = 305.55 K
[18] = aq. MEAL, w3 = 0.1000, Thm = 305.55 K
[19] = aq. MEAL, w3 = 0.1500, Thm = 305.55 K
[20] = aq. MEAL, w3 = 0.2000, Thm = 305.55 K
[21] = aq. MEAP, w3 = 0.0000, Thm = 305.55 K
[22] = aq. MEAP, w3 = 0.0200, Thm = 305.55 K
[23] = aq. MEAP, w3 = 0.0500, Thm = 305.55 K
[24] = aq. MEAP, w3 = 0.0700, Thm = 305.55 K
[25] = aq. MEAP, w3 = 0.1000, Thm = 305.55 K
[26] = aq. MEAP, w3 = 0.1500, Thm = 305.55 K
[27] = aq. MEAP, w3 = 0.2000, Thm = 305.55 K

CCC(=O)O.NCCO [MEAP, 2-Hydroxyethylammonium propionate]
cytotoxic effect category (HT29 cell line [1]): moderate
IC50 (HT29 cell line [1]): 67.19 ± 0.049 µg/mL

COc1ccc2c(c1)c(CC(=O)O)c(C)n2C(=O)c1ccc(Cl)cc1 [Indomethacin]
ΔGsoln∘ [2, 7]: 8.265 kcal/mol
ΔHsoln∘ [2, 7]: 6.052 kcal/mol
ξH [2, 7]: 73.23%
ξTS [2, 7]: 26.77%
ΔGsoln∘ [2, 8]: 6.804 kcal/mol
ΔHsoln∘ [2, 8]: 4.345 kcal/mol
ξH [2, 8]: 63.86%
ξTS [2, 8]: 36.14%
ΔGsoln∘ [2, 9]: 6.671 kcal/mol
ΔHsoln∘ [2, 9]: 3.662 kcal/mol
ξH [2, 9]: 54.90%
ξTS [2, 9]: 45.10%
ΔGsoln∘ [2, 10]: 6.604 kcal/mol
ΔHsoln∘ [2, 10]: 2.13 kcal/mol
ξH [2, 10]: 32.21%
ξTS [2, 10]: 67.79%
ΔGsoln∘ [2, 11]: 6.561 kcal/mol
ΔHsoln∘ [2, 11]: 2.55 kcal/mol
ξH [2, 11]: 38.86%
ξTS [2, 11]: 61.14%
ΔGsoln∘ [2, 12]: 6.422 kcal/mol
ΔHsoln∘ [2, 12]: 4.572 kcal/mol
ξH [2, 12]: 71.17%
ξTS [2, 12]: 28.83%
ΔGsoln∘ [2, 13]: 6.255 kcal/mol
ΔHsoln∘ [2, 13]: 2.536 kcal/mol
ξH [2, 13]: 40.54%
ξTS [2, 13]: 59.46%
ΔGsoln∘ [2, 14]: 8.265 kcal/mol
ΔHsoln∘ [2, 14]: 6.052 kcal/mol
ξH [2, 14]: 73.23%
ξTS [2, 14]: 26.77%
ΔGsoln∘ [2, 15]: 6.028 kcal/mol
ΔHsoln∘ [2, 15]: 5.282 kcal/mol
ξH [2, 15]: 87.61%
ξTS [2, 15]: 12.39%
TMΔSsoln∘ [2, 16]: 0.598 kcal/mol
ΔGsoln∘ [2, 16]: 5.746 kcal/mol
ΔHsoln∘ [2, 16]: 6.343 kcal/mol
ξH [2, 16]: 91.39%
ξTS [2, 16]: 8.61%
TMΔSsoln∘ [2, 17]: 2.457 kcal/mol
ΔGsoln∘ [2, 17]: 5.633 kcal/mol
ΔHsoln∘ [2, 17]: 8.09 kcal/mol
ξH [2, 17]: 76.70%
ξTS [2, 17]: 23.30%
TMΔSsoln∘ [2, 18]: 0.911 kcal/mol
ΔGsoln∘ [2, 18]: 5.471 kcal/mol
ΔHsoln∘ [2, 18]: 6.381 kcal/mol
ξH [2, 18]: 87.50%
ξTS [2, 18]: 12.50%
TMΔSsoln∘ [2, 19]: 2 kcal/mol
ΔGsoln∘ [2, 19]: 5.208 kcal/mol
ΔHsoln∘ [2, 19]: 7.206 kcal/mol
ξH [2, 19]: 78.28%
ξTS [2, 19]: 21.72%
TMΔSsoln∘ [2, 20]: 0.614 kcal/mol
ΔGsoln∘ [2, 20]: 5.036 kcal/mol
ΔHsoln∘ [2, 20]: 5.652 kcal/mol
ξH [2, 20]: 90.18%
ξTS [2, 20]: 9.82%
ΔGsoln∘ [2, 21]: 8.265 kcal/mol
ΔHsoln∘ [2, 21]: 6.052 kcal/mol
ξH [2, 21]: 73.23%
ξTS [2, 21]: 26.77%
TMΔSsoln∘ [2, 22]: 0.75 kcal/mol
ΔGsoln∘ [2, 22]: 6.965 kcal/mol
ΔHsoln∘ [2, 22]: 7.715 kcal/mol
ξH [2, 22]: 91.14%
ξTS [2, 22]: 8.86%
TMΔSsoln∘ [2, 23]: 1.91 kcal/mol
ΔGsoln∘ [2, 23]: 6.74 kcal/mol
ΔHsoln∘ [2, 23]: 8.65 kcal/mol
ξH [2, 23]: 81.92%
ξTS [2, 23]: 18.08%
TMΔSsoln∘ [2, 24]: 7.481 kcal/mol
ΔGsoln∘ [2, 24]: 6.616 kcal/mol
ΔHsoln∘ [2, 24]: 14.1 kcal/mol
ξH [2, 24]: 65.33%
ξTS [2, 24]: 34.67%
TMΔSsoln∘ [2, 25]: 11.89 kcal/mol
ΔGsoln∘ [2, 25]: 6.456 kcal/mol
ΔHsoln∘ [2, 25]: 18.34 kcal/mol
ξH [2, 25]: 60.68%
ξTS [2, 25]: 39.32%
TMΔSsoln∘ [2, 26]: 14.01 kcal/mol
ΔGsoln∘ [2, 26]: 6.066 kcal/mol
ΔHsoln∘ [2, 26]: 20.07 kcal/mol
ξH [2, 26]: 58.90%
ξTS [2, 26]: 41.10%
TMΔSsoln∘ [2, 27]: 9.183 kcal/mol
ΔGsoln∘ [2, 27]: 5.786 kcal/mol
ΔHsoln∘ [2, 27]: 14.97 kcal/mol
ξH [2, 27]: 61.98%
ξTS [2, 27]: 38.02%
solubility (mole fraction) ([3]; ethanol/water (wETOH = 0.2), 298.15 K, ref Peña et al.): 1.13 × 10^−5 mole fraction
solubility (mole fraction) ([3]; propylene glycol/water, 0.4 weight fraction propylene glycol, 303.15 K, ref Holguín et al. 52): 7.61 × 10^–6 mole fraction
solid phase stability in solubility measurements (XRD) [4]: no phase transformation
IMC solubility in MEAL PIL relative to water [5]: more than 200 times
increase of IMC solubility in PILs compared to pure water [5]: ~200 times
solubility (mole fraction) [5]: 20.71 × 10^−5 mole fraction

CC(=O)O.NCCO [MEAA, 2-Hydroxyethylammonium acetate]
IC50 (HT29 cell line [1]): 26.40 ± 0.006 µg/mL
cytotoxic effect category (HT29 cell line [6]): moderate

CC(O)C(=O)O.NCCO (centres unmarked) [MEAL, 2-Hydroxyethylammonium lactate]
IC50 (HT29 cell line [1]): 79.23 ± 0.001 µg/mL
cytotoxic effect category (HT29 cell line [6]): moderate
